Structures are written as SMILES.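 Compound exposure: 48 hours, 5 concentrations, 96-well plates. At the GI50, growth is halved.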 The source made the active and inactive calls. Cut-off read from the data, not from the text of the source: active = GI50 up to about 1.1 µM and inactive = higher.

Common to all, as to experiment: NCI anticancer screen, dose series, 48 h
For test [1], the system named is NCI/ADR-RES.
Test [2] has as its system 786-0.
For test [3], the system named is SR.
For test [4], the system named is UACC-62.
The test system of test [5] is K562.
Test [6] deals with MCF7.
Test [7] deals with SK-MEL-28.
Test [8] has as its system CCRF-CEM.
Test [9] concerns CAKI-1.
The test system of test [10] is COLO 205.
In test [11] the test system is HOP-62.
The subject of test [12] is SF-539.
Test [13] deals with MDA-MB-435.
The test system of test [14] is OVCAR-5.
For test [15], the system named is A498.
The test system of test [16] is SF-268.
Test [17] relates to SF-295.
The subject of test [18] is HOP-92.
Test [19] has as its system NCI-H23.

As to `Cc1cc(C)nc(NC(=S)Nc2ccccc2Cl)c1`, the GI50 in test [1], in test [2], in test [3], in test [4], in [5] and in test [6] was > 100 µM (inactive) throughout. The GI50 in [7], in test [8], in test [9], in test [10], in test [11] and in test [12] was > 100 µM (inactive) in each case. Also, the GI50 in test [13], in test [14], in [15], in [16] and in [17] was > 100 µM (inactive) each time.
For `C/C=C/C=N/N(c1nnc(-c2ccccc2)c(-c2ccccc2)n1)S(=O)(=O)c1ccc(C)cc1`, the GI50 in test [2] is 6.78 µM (inactive); in test [3], 3.48 µM (inactive); in [4], 3.33 µM (inactive); in test [5] it was 6.37 µM (inactive); in [7], 13.5 µM (inactive); in [18], 16.2 µM (inactive). Also, the GI50 in [8] is 2.49 µM (inactive); in [9] it was 16.9 µM (inactive); in test [19], 14 µM (inactive); in test [10], 17.1 µM (inactive); in test [12], 11.5 µM (inactive); in [14], 19.3 µM (inactive). Moreover, the GI50 in test [15] was 14.3 µM (inactive); in [16], 5.46 µM (inactive); in test [17], 11 µM (inactive).
Turning to `C=C(C)C1CC[C@]2(C(=O)O)CCC3(C)[C@H](CCC4[C@@]5(C)CC[C@H](OC6OC(CO)C(O)C6OC6OC(C)C(O)C(O)C6O)[C@@](C)(CO)C5CC[C@]43C)C12` (stereo partly specified), the GI50 in test [2], in test [3], in [4], in test [5], in test [7] and in test [8] was > 100 µM (inactive) throughout. In addition, the GI50 in test [19], in test [10], in test [11], in test [12], in test [14] and in test [16] was > 100 µM (inactive) in each case. For the same compound, the GI50 in test [17] was > 100 µM (inactive).
On to `Oc1nc(S)nc2c1CCCN2`, for which the GI50 in test [2] is > 100 µM (inactive); in [3] it was > 100 µM (inactive); in [4] it was > 100 µM (inactive); in [5] it was > 10 µM (inactive); in [7], > 100 µM (inactive); in test [18], > 100 µM (inactive). The GI50 in test [8], in test [9], in test [19], in test [10], in [11] and in test [14] was > 100 µM (inactive) in each case. In addition, the GI50 in test [16] and in test [17] was > 100 µM (inactive) throughout.
With `O=C(/C=C/c1ccccc1O)c1cccnc1`, the GI50 in test [2], in [3], in [4], in test [5], in [7] and in [8] was > 100 µM (inactive) in each case. For the same compound, the GI50 is > 100 µM (inactive) in test [9]; 51.3 µM (inactive) in test [19]; > 100 µM (inactive) in test [11]; > 100 µM (inactive) in test [12]; > 100 µM (inactive) in test [14]; > 100 µM (inactive) in test [15]. For the same compound, the GI50 in [16] and in test [17] was > 100 µM (inactive) throughout.
In the case of `C1OCC2S[C@@H]3COCO[C@@H]3C2O1` (stereo partly specified), the GI50 in test [2], in test [3], in test [4], in [5], in [7] and in test [8] was > 100 µM (inactive) throughout. In addition, the GI50 in test [9], in test [19], in [10], in test [11], in test [12] and in [14] was > 100 µM (inactive) in each case. Moreover, the GI50 in [15], in test [16] and in [17] was > 100 µM (inactive) each time.
With `CC(C)=C1CCC(CN(C)C)C1=O` (stereo unspecified), the GI50 in test [2] was 12.6 µM (inactive); in test [3], 12.4 µM (inactive); in [4], 18.1 µM (inactive); in test [5], 6.08 µM (inactive); in [7] it was 18.2 µM (inactive); in test [18], 20.9 µM (inactive). The GI50 in test [8] is 8.95 µM (inactive); in test [19], 35.7 µM (inactive); in test [10], 24.1 µM (inactive); in test [12] it was > 100 µM (inactive); in [14], > 100 µM (inactive); in test [15] it was 19.6 µM (inactive). Also, the GI50 in test [16] is 31.5 µM (inactive); in test [17] it was > 100 µM (inactive).
Regarding `CCCCC1CC(c2cccc([N+](=O)[O-])c2)=NO1` (stereo unspecified), the GI50 was > 100 µM (inactive) in test [2]; > 100 µM (inactive) in [3]; 54.8 µM (inactive) in [4]; 60.8 µM (inactive) in test [5]; > 100 µM (inactive) in test [7]; > 100 µM (inactive) in [18]. For the same compound, the GI50 in test [8] was 48.5 µM (inactive); in [9], 63.5 µM (inactive); in test [19] it was 80.9 µM (inactive); in [10], > 100 µM (inactive); in [11] it was > 100 µM (inactive); in test [12] it was > 100 µM (inactive). In addition, the GI50 in test [14] was > 100 µM (inactive); in test [15], 49.2 µM (inactive); in [16], > 100 µM (inactive); in test [17], 97.7 µM (inactive).
`CCOC(=O)c1c(C(F)(F)F)oc2c1ccc1nc3nonc3nc12`: the GI50 in [2] was 12.4 µM (inactive); in test [3], 3.58 µM (inactive); in test [4], 15 µM (inactive); in test [5] it was 2.67 µM (inactive); in test [7], 14.3 µM (inactive); in test [18], 13.2 µM (inactive). Besides, the GI50 in test [8] is 1.91 µM (inactive); in [9] it was 14 µM (inactive); in test [19] it was 13.4 µM (inactive); in test [10], 24.2 µM (inactive); in test [11], 13.8 µM (inactive); in test [12], 16.2 µM (inactive). In addition, the GI50 in test [14] is 17.2 µM (inactive); in test [15] it was 16.7 µM (inactive); in test [16], 17.9 µM (inactive); in test [17], 27 µM (inactive).
Take `C(/C=C/N1CCCC1)=C\c1nc(N2CCCC2)c2ccccc2n1`: the GI50 in test [2] was 16.6 µM (inactive); in test [3], 13.6 µM (inactive); in test [4], 21.2 µM (inactive); in test [5] it was 12.5 µM (inactive); in test [7], 22.9 µM (inactive); in [8], 13.2 µM (inactive). The GI50 in [9] was 19.7 µM (inactive); in test [19], 18.2 µM (inactive); in test [10], 14.4 µM (inactive); in test [11] it was 19.5 µM (inactive); in test [12], 18.3 µM (inactive); in test [14], 15.6 µM (inactive). In addition, the GI50 is > 100 µM (inactive) in test [15], 23.9 µM (inactive) in [16] and 20.4 µM (inactive) in test [17].
`COc1ccc(C2(Cl)C(Cl)(C(F)(F)F)C2(Cl)C(F)(F)F)cc1` (stereo unspecified): the GI50 in test [2] is 17.2 µM (inactive); in [3], 10.2 µM (inactive); in test [4], 13.6 µM (inactive); in [5], 20.5 µM (inactive); in test [7], 15.6 µM (inactive); in [18] it was 13.9 µM (inactive). The GI50 in [8] is 3.78 µM (inactive); in [9], 16 µM (inactive); in [19], 14.7 µM (inactive); in [10], 15.9 µM (inactive); in [11] it was 18.4 µM (inactive); in test [12] it was 15.2 µM (inactive). Further, the GI50 is 14.1 µM (inactive) in test [14], 15.6 µM (inactive) in test [16] and 14.8 µM (inactive) in [17].
Turning to `CC(C)=CCCc1c(C)ccc2c1C(=O)C(=O)C(C(C)C)=C2`, the GI50 is 3.95 µM (inactive) in test [2]; 3.5 µM (inactive) in test [3]; 3.87 µM (inactive) in test [5]; 3.87 µM (inactive) in [7]; 3.26 µM (inactive) in [18]; 0.661 µM (active) in test [8]. In addition, the GI50 in test [9] is 4.16 µM (inactive); in [19], 3.94 µM (inactive); in test [10] it was 7.24 µM (inactive); in [12], 4.27 µM (inactive); in test [15], > 22 µM (inactive); in test [16], 5.71 µM (inactive). Further, the GI50 in [17] is > 22 µM (inactive).
`C/C(=N/O)c1sc(-c2nc(C)c(/C(C)=N\O)s2)nc1C`: the GI50 in test [2], in [3], in test [4], in test [5], in test [7] and in test [18] was > 100 µM (inactive) throughout. In addition, the GI50 in [8], in [9], in [19], in test [10], in [12] and in test [15] was > 100 µM (inactive) each time. Besides, the GI50 in [16] and in [17] was > 100 µM (inactive) throughout.

These data come from ChEMBL document CHEMBL1201862, “PubChem BioAssay data set” (2004).
